{
  "source": "patent US7799326B2",
  "about": "“Methods and compositions for cathespin k complex-mediated disorders” (Mount Sinai School of Medicine, priority 2001, dated 2010)",
  "key": {"CSA/Cat K complex": {"molecular_target": "T1, CSA/Cat K complex (Homo sapiens, UniProt P43235)", "T1 construct": "may comprise the native mature cathepsin K peptide", "T1 sequence (P43235 115-329)": "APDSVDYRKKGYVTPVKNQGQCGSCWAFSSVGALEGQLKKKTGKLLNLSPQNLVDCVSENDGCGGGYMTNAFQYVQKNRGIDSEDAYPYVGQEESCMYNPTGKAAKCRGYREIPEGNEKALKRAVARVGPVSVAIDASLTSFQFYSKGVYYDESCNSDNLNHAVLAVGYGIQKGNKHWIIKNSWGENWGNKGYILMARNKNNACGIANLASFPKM", "experiment": "Fluoresceinamine-labeled CSA/Cat K complex formation fluorescence assay", "type": "binding", "settings": "120 nM Cat K; 0.6 μg/ml FL-CSA; excitation 300 nm, emission 604 nm", "procedure": "Curve 1: 120 nM Cat K, then 0.6 μg/ml FL-CSA, and then 3 μg/ml dextran sulfate; Curve 2:,0.6 μg/ml FL-CSA, then 120 nM Cat K, and then 3 μg/ml dextran sulfate.\nThe pH was adjusted to pH 11 by addition of 5 M NaOH. […] The mixture was kept overnight at 4° C. for the coupling reaction. Subsequently, the mixture was concentrated to 1 ml using a SpeedVac concentrator and purified on a PD-10 column and eluded by 50 mM sodium acetate buffer, pH 5.5.\nCat K at a final concentration of 120 nM was added to 1 ml 100 mM sodium acetate buffer, pH 5.5 containing 2 mM EDTA/DTT using 2 milliliter cuvettes. The fluorescence signal for the protein alone is close to zero. […] After the addition of complex formation inhibitors, the fluorescence signal dropped to zero (FIG. 1). This assay allows the simple and convenient screening of compounds capable to interfere with complex formation."}, "cathepsin K/CSA complex": {"molecular_target": "T2, cathepsin K/CSA complex (Homo sapiens, UniProt P43235)", "T2 construct": "may comprise the native mature cathepsin K peptide", "T2 sequence (P43235 115-329)": "T1 sequence (P43235 115-329)", "experiment": "Soluble type I collagen digestion by cathepsin K, analysed by SDS-PAGE", "type": "biochemical", "settings": "28° C.; for effect on type I collagen degradation by cathepsin K in the presence of CSA: 0.15% test substance + 0.15% CSA, 800 nM cathepsin K; for collagenase activity of the complex formed with cathepsin K (type I collagen): 0.15% polymer, pH 5.5", "procedure": "Soluble type I bovine collagen was digested with 800 nM cathepsin K at 28° C., in 100 mM sodium acetate buffer pH 5.5, containing 2.5 mM EDTA/DTT. The reaction was stopped by the addition of 10 μM E-64 after various time periods and the samples were analyzed by 4-20% SDS-Page. […] The reaction was stopped by the addition of 10 μM E-64 after 8 h of incubation and the samples were analyzed by 4-20% SDS-polyacrylarnide electrophoresis.\nSoluble type I bovine collagen was digested with 800 nM purified recombinant human cathepsin K and gelatin (soluble type I collagen was heated for 20 min at 70 C) with 0.5 nM cathepsin K at 28° C. and 37 C, in 100 mM sodium acetate buffer, pH 5.5, containing 2.5 mM EDTA/DTT. […] The reaction was stopped by the addition of 10 μM E-64 after 8 h of incubation and the samples were analyzed by 4-20% SDS-polyacrylamide electrophoresis.\nThe reactions were stopped by the addition of 10 μM E-64 and the samples were analyzed by 4-20% SDS-Page.\n(§1) The elution buffer was 100 mM sodium acetate, pH 5.5, 1 mM EDTA/DTT. […] The reaction was stopped by the addition of 10 μM E-64 and the samples were analyzed by 4-20% SDS-Page.\nas §1\nThe reaction was stopped by the addition of 10 μM E-64 and the samples were analyzed by 4-20% SDS-Page.\nas §1, §1"}, "cathepsin K [1]": {"molecular_target": "T3, cathepsin K (Homo sapiens, UniProt P43235)", "T3 construct": "may comprise the native mature cathepsin K peptide", "T3 sequence (P43235 115-329)": "T1 sequence (P43235 115-329)", "experiment": "Superdex 200 gel filtration of cathepsin K preincubated with polymers", "type": "binding", "settings": "for effect on CSA/cathepsin K complex formation: 0.15% test substance + 0.15% CSA, gel filtration; for formation of a high molecular weight complex with cathepsin K: 0.15% test substance without CSA; for elution volume (Ve) of the complex with cathepsin K: 30 μg cathepsin K preincubated with 0.15% polymer, Superdex 200, no NaCl", "procedure": "The elution buffer was 100 mM sodium acetate, pH 5.5, 1 mM EDTA/DTT.\nThe protein elution was recorded at OD280 nm and fractions were assayed for the hydrolysis of the cathepsin K substrate Z-Leu-Arg-MCA. […] The sample was loaded into the well of a 0.5% agarose gel and separated at room temperature at 55 V, 250 mA for 30 min in a running buffer containing 125 mM sodium acetate, pH 5.0,0.5 mM EDTA, 1 mM DTT, 40 mM NaCl, and 0.1% Chaps. The gel was dried and subsequently exposed to an X-ray film. The conditions for lane 3 were modified by the addition of 300 mM NaCl into the agarose gel and running buffer. […] Activity assays were performed using Z-LR-MCA as substrate in 100 mM sodium acetate buffer, pH 5.5, containing 2.5 mM EDTA/DTT and 0.5 nM recombinant human cathepsin K.\n30 μg of cathepsin K were preincubated with elution buffer containing 0.15% low molecular fraction (V3 67.2 ml) of dermatan sulfate (DS) 0.15% 2-15 kD poly-D-Glu, or 0.15% 10 kD dextran sulfate for 20 min, and then applied to a Superdex 200 column. The elution buffer was 100 mM sodium acetate, pH 5.5, containing 1 mM EDTA/DTT.\nas §1, §1, §1, §1"}, "cathepsin K [2]": {"molecular_target": "T3, cathepsin K", "experiment": "Agarose gel electrophoretic mobility shift assay of cathepsin K complexes", "type": "binding", "settings": "for effect on CSA/cathepsin K complex formation: 0.15% test polymer + 0.15% CSA, mobility shift; for affinity to cathepsin K relative to CSA: inferred from competition with 0.15% CSA", "procedure": "The protein elution was recorded at OD280 nm and fractions were assayed for the hydrolysis of the cathepsin K substrate Z-Leu-Arg-MCA. […] The gel was dried and subsequently exposed to an X-ray film. […] Activity assays were performed using Z-LR-MCA as substrate in 100 mM sodium acetate buffer, pH 5.5, containing 2.5 mM EDTA/DTT and 0.5 nM recombinant human cathepsin K.\nAfter exposure of the dried gel to an X-ray film, the signal of free cathepsin K was densitometrically determined and the amount of cathepsin K in the complex was calculated (cat Kcompley=cat Ktotal−cat Kfree).\nSamples were subsequently mixed with non-reducing protein sample buffer, DNA dye, and melted agarose gel (melted at 37 C; 0.4% final concentration) at 37 C and embedded into a pre-made wells of a 0.5% agarose gel (running conditions: 25° C.; 55 V, 250 mA for 30 min). The gel was stained with toluidine blue for glycosaminoglycans and coomassie blue for protein."}, "[3]": {"experiment": "Mobility shift assay of complex formation of proteases with CSA", "type": "binding", "settings": "50 ng [125I]DCG-04 labeled protease; 0.1% CSA", "procedure": "The gel was run at about 25° C. 55 V, 250 mA for 30 min, then dried and developed the radio signal on a film."}},
  "data": [
    {"compound": "CC(=O)N[C@H]1C(O)O[C@H](CO)[C@H](OS(=O)(=O)O)[C@@H]1O[C@@H]1OC(C(=O)O)=C[C@H](O)[C@H]1O", "note": "(stereo partly drawn) [CSA disaccharide, chondroitin disaccharide-4S]", "values": [
      {"measurement": "effect on fluorescence signal of FL-CSA/Cat K complex", "setting": "CSA/Cat K complex", "result": "did not show any effect"},
      {"measurement": "effect on type I collagen degradation by cathepsin K in the presence of CSA", "setting": "cathepsin K/CSA complex", "result": "identical"},
      {"measurement": "effect on CSA/cathepsin K complex formation", "setting": "cathepsin K [1]", "result": "did not interfere with complex formation"},
      {"measurement": "formation of a high molecular weight complex with cathepsin K", "setting": "cathepsin K [1]", "result": "unable to generate high-molecular complexes with cathepsin K"}
    ]},
    {"compound": "[Cl-].[Na+]", "note": "[NaCl]", "values": [
      {"measurement": "effect on cathepsin K complex formation", "setting": "cathepsin K [1]; elution in the presence of 300 mM NaCl, cathepsin K/CSA mixture", "result": "inhibits the formation of cathepsin K complexes"},
      {"measurement": "effect on cathepsin K/CSA complex", "setting": "cathepsin K [2]; 300 mM NaCl in agarose gel and running buffer, 0.1% CSA", "result": "the complex dissociated"}
    ]},
    {"compound": "Cat L: human cathepsin L, closely related cysteine protease", "values": [
      {"measurement": "complex formation with CSA", "setting": "[3]", "result": "Only cathepsin K formed a stable complex"}
    ]},
    {"compound": "dermatan sulfate", "values": [
      {"measurement": "effect on fluorescence signal of FL-CSA/Cat K complex", "setting": "CSA/Cat K complex", "result": "decrease the fluorescence signal"},
      {"measurement": "elution volume (Ve) of the complex with cathepsin K", "setting": "cathepsin K [1]", "result": 14, "unit": "mL"}
    ]},
    {"compound": "dextran", "values": [
      {"measurement": "effect on fluorescence signal of FL-CSA/Cat K complex", "setting": "CSA/Cat K complex", "result": "did not show any effect"},
      {"measurement": "effect on type I collagen degradation by cathepsin K in the presence of CSA", "setting": "cathepsin K/CSA complex", "result": "identical"},
      {"measurement": "formation of a high molecular weight complex with cathepsin K", "setting": "cathepsin K [1]", "result": "did not form a high molecular weight complex with cathepsin K"}
    ]},
    {"compound": "dextran sulfate", "values": [
      {"measurement": "effect on fluorescence signal of FL-CSA/Cat K complex", "setting": "CSA/Cat K complex", "result": "decrease the fluorescence signal"},
      {"measurement": "collagenase activity of the complex formed with cathepsin K (type I collagen)", "setting": "cathepsin K/CSA complex", "result": "did not exhibit collagenase activity"},
      {"measurement": "effect on type I collagen degradation by cathepsin K in the presence of CSA", "setting": "cathepsin K/CSA complex", "result": "prevents the degradation of type I collagen"},
      {"measurement": "elution volume (Ve) of the complex with cathepsin K", "setting": "cathepsin K [1]", "result": 13.5, "unit": "mL"},
      {"measurement": "effect on CSA/cathepsin K complex formation", "setting": "cathepsin K [1]", "result": "prevented the formation of a cathepsin K/CSA complex"},
      {"measurement": "effect on CSA/cathepsin K complex formation", "setting": "cathepsin K [2]", "result": "blocked"},
      {"measurement": "affinity to cathepsin K relative to CSA", "setting": "cathepsin K [2]", "result": "bind with a higher affinity to cathepsin K than CSA"}
    ]},
    {"compound": "heparan sulfate", "values": [
      {"measurement": "effect on fluorescence signal of FL-CSA/Cat K complex", "setting": "CSA/Cat K complex", "result": "decrease the fluorescence signal"}
    ]},
    {"compound": "poly-D-Glu", "values": [
      {"measurement": "collagenase activity of the complex formed with cathepsin K (type I collagen)", "setting": "cathepsin K/CSA complex", "result": "did not exhibit collagenase activity"},
      {"measurement": "effect on type I collagen degradation by cathepsin K in the presence of CSA", "setting": "cathepsin K/CSA complex", "result": "prevents the degradation of type I collagen"},
      {"measurement": "elution volume (Ve) of the complex with cathepsin K", "setting": "cathepsin K [1]", "result": 14.2, "unit": "mL"},
      {"measurement": "effect on CSA/cathepsin K complex formation", "setting": "cathepsin K [1]", "result": "prevented the formation of a cathepsin K/CSA complex"},
      {"measurement": "effect on CSA/cathepsin K complex formation", "setting": "cathepsin K [2]", "result": "blocked"},
      {"measurement": "affinity to cathepsin K relative to CSA", "setting": "cathepsin K [2]", "result": "bind with a higher affinity to cathepsin K than CSA"}
    ]},
    {"compound": "poly-alanine", "values": [
      {"measurement": "effect on fluorescence signal of FL-CSA/Cat K complex", "setting": "CSA/Cat K complex", "result": "did not show any effect"}
    ]},
    {"compound": "poly-aspartic acid", "values": [
      {"measurement": "effect on fluorescence signal of FL-CSA/Cat K complex", "setting": "CSA/Cat K complex", "result": "decrease the fluorescence signal"}
    ]},
    {"compound": "poly-glutamic acid", "values": [
      {"measurement": "effect on fluorescence signal of FL-CSA/Cat K complex", "setting": "CSA/Cat K complex", "result": "decrease the fluorescence signal"}
    ]},
    {"compound": "poly-lysine", "values": [
      {"measurement": "effect on fluorescence signal of FL-CSA/Cat K complex", "setting": "CSA/Cat K complex", "result": "did not show any effect"}
    ]}
  ]
}
